From patent US20220002291A1, “PROTEOLYSIS-TARGETING CHIMERAS” (The Wistar Institute of Anatomy and Biology, priority 2018, published 2022)
pIC50: −log10 of the molar value. Entries after “also recorded” stand apart in the source; their conditions may differ.

Experiments:
CDK6 = target: T1, CDK6 (Homo sapiens, UniProt Q00534); experiment: CDK6 DC50 determination in BV173 cells (immunoblot densitometry); type: cell-based; conditions: Ph+ BV173 ALL cells, densitometry of CDK6 band intensity; read-out: degradation constant DC50 of CDK6
T1 construct: endogenous in cells; host or cells: BV173
T1 sequence (Q00534 whole entry): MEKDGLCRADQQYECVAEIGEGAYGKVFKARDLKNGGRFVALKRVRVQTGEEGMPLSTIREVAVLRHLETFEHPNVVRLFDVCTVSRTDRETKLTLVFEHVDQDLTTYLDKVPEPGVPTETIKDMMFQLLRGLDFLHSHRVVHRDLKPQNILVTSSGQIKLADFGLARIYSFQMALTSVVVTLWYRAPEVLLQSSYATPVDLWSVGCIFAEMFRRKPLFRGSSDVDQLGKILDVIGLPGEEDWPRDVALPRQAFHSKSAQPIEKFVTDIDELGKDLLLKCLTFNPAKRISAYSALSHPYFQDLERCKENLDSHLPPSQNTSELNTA
Procedure: (§1) Membranes were incubated with 1:10,000 HRP-conjugated secondary antibodies (Thermo Fisher Scientific, anti-mouse-HRP #31430, or anti rabbit-HRP #31460) and signals were visualized by chemiluminescent reaction using SuperSignal West Pico (Thermo Fisher Scientific #34580) or Dura (Thermo Fisher Scientific #34075) Chemiluminescent Substrates. When different antibodies were used to probe the same nitrocellulose membrane, previous signals were removed by incubation with 0.5% sodium azide for 10 minutes at RT or by stripping in 62 mM Tris-HCL pH 6.8, 2% SDS, 0.7% β-mercaptoethanol for 20 min at 50° C. The degradation constant (DC50) for the tested PROTACs was calculated in GraphPad Prism 6.0 software by plotting the densitometric values of CDK4/6 intensity normalized by the intensity of the loading control.
CDK6 DC50 determination in PROTAC YX-2-107-treated BV173 cells. PROTAC YX-2-107 concentration for half-maximal degradation (DC50) of CDK6 was assessed by immunoblot analysis of CDK6 in cells treated with PROTAC at various doses. Levels of CDK6 were measured by densitometric analysis using ImageJ software and normalized by the levels of β-ACTIN. The DC50 was determined by analyzing the dose-effect curve in Graphpad PRISM

[1] = system: CDK6, CDK4, FOXM1, phospho-RB in BV173 and SUP-B15 cells; experiment: Immunoblot for CDK6, CDK4, FOXM1 and phospho-RB in Ph+ ALL cell lines; type: cell-based, human
Procedure: Protein analysis. Cells were counted and lysed at a density of 10,000/μL in Laemmli Buffer supplemented with 5% β-Mercaptoethanol. Lysates were resolved on a 4-20% gradient polyacrylamide gels (Biorad, #4561095) and transferred onto a nitrocellulose membrane (Santa Cruz Biotechnology, #sc-3718) using a semi-dry trans-blot transfer cell (Bio-Rad). Membranes were then blocked in 5% non-fat dry milk/TBS-T and incubated with the following primary antibodies: CDK6 (rabbit, CST #13331), CDK6 (mouse, CST #3136), CDK4 (rabbit, CST #12790), CDK4 (rabbit, Bethyl Laboratories #A304-224), FOXM1 (rabbit, Santa Cruz Biotechnology #sc-502), phospho-RB Ser-780 (rabbit, CST #9307), phospho-RB […] (rabbit, CST #9308), β-ACTIN, (mouse, CST #3700).
as §1

BV173 cells = experiment: Proteomic analysis (LC-MS/MS, LFQ) of BV173 cells; type: cell-based, human; conditions: 1 μM, 4 hours
Procedure: Proteomic Analysis. 15×10^6 BV173 cells were treated for 4 hours with 1 μM of PROTAC YX-2-107 or DMSO in triplicate. Cells were centrifuged, washed in ice-cold PBS and lysed in 300 μL of lysis buffer (50 mM Tris, pH 7.5, 1% SDS, 150 mM NaCl, 1 mM EDTA) supplemented with protease inhibitor cocktail (VWR #M221). Lysates were sonicated with Bioruptor (Diagenode) and cleared by centrifugation (10,000 g, 30 min, 4° C.). Protein concentration was assessed by the BCA method (Pierce #23227). Twenty-five μg of proteins were loaded on 10% acrylamide gels (Bio Rad, #4561035), electrophoresed into the gel for 0.5 cm and stained with Coomassie brilliant blue R-250 (Bio Rad #1610400) 0.1% in 40% ethanol, 10% Acetic Acid glacial, 50% water. The entire protein-containing gel regions were excised, digested with trypsin and analyzed by liquid chromatography tandem mass spectrometry (LC-MS/MS) using a 240-min gradient as described (Chae et al., 2016).
Peptide sequences were identified using MaxQuant 1.6.3.3 (Cox and Mann, 2008). MS/MS spectra were searched against a UniProt human protein database (Oct. 1, 2018) using full tryptic specificity with up to two missed cleavages, static carboxamidomethylation of Cys, and variable oxidation of Met and protein N-terminal acetylation. Proteins were quantified by label-free quantitation (LFQ). […] A total of 3,682 protein groups were quantified using these criteria.

[2] = Pharmacokinetic analysis of PROTAC YX-2-107 in mice; type: in vivo, mouse
Procedure: Pharmacokinetic analysis of PROTAC YX-2-107 in CD-1 mice. A 1-arm PK study was performed in 18 CD-1 mice (n=3 mice per time point). Animals were injected intraperitoneally (IP) with a single dose (10 mg/kg) of PROTAC YX-2-107 dissolved in a solution of 10% DMSO, 10% Solutol, 80% PBS. Plasma samples were collected at 0.25, 0.5, 1, 2, 4, and 6 hours post-IP injection and analyzed by LC-MS/MS. Concentrations of PROTAC YX-2-107 were calculated by linear regression analysis. This analysis was performed by Alliance Pharma (Malvern, Pa.).

CDK4/cyclinD1 = CDK4/cyclinD1 (Homo sapiens, UniProt P11802); experiment: Inhibition of CDK4 kinase activity (in vitro)
CDK4/cyclinD1, sequence (P11802 whole entry): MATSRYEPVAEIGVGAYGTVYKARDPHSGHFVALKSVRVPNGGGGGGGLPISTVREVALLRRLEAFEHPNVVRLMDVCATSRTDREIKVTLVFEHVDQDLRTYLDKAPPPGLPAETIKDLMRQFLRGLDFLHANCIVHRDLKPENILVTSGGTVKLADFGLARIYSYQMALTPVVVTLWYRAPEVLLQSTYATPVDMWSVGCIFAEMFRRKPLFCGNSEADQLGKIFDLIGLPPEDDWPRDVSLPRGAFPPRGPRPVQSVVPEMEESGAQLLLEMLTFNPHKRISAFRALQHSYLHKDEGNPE
CDK4/cyclinD1, sequence (P24385 whole entry partner): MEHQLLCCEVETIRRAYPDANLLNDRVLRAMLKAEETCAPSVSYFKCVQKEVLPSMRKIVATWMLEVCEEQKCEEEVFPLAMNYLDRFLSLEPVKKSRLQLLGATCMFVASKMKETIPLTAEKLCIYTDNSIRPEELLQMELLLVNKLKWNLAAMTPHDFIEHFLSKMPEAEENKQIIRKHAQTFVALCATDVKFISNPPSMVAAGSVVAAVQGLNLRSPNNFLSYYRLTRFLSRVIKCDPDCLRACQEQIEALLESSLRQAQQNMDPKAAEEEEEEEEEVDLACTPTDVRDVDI

[3] = CD-1, mouse, plasma, intraperitoneal, 10 mg/kg IP

- DC50 (CDK6): ~4 nM
- Cmax relative to CDK6 degradation IC50 ([2]; 10 mg/kg IP): 150 fold
- plasma exposure at 2 h relative to CDK6 degradation IC50 ([2]; 10 mg/kg IP): 30 fold
- plasma exposure at 6 h relative to CDK6 degradation IC50 ([2]; 10 mg/kg IP): approximately 4 fold
- half-life ([2]; CD-1, mouse, plasma, 10 mg/kg, administered by IP, read-out: half-life in mouse PK study (converted)): 1 h
- concentration at 2 h [2, 3]: 133 nM
- concentration at 6 h [2, 3]: 21 nM
- Cmax ([2]; CD-1, mouse, plasma, 10 mg/kg IP, single dose): 741 nM
- pIC50 (CDK4/cyclinD1): 9.16
SMILES: CC(=O)c1c(C)c2cnc(Nc3ccc(N4CCN(C(=O)CNCCCCNC(=O)COc5cccc6c5C(=O)N(C5CCC(=O)NC5=O)C6=O)CC4)cn3)nc2n(C2CCCC2)c1=O (stereo not drawn) [YX-2-107]
- CDK4 expression / levels ([1]; BV173 and SUP-B15 cells): CDK4 expression did not increase
- CDK6 expression / levels ([1]; BV173 and SUP-B15 cells): levels of CDK6 were markedly decreased
- RB phosphorylation and FOXM1 expression ([1]; BV173 and SUP-B15 cells): inhibits S phase entry, RB phosphorylation, and FOXM1 expression but at a higher concentration than palbociclib; also recorded: slightly weaker compared to palbociclib; also recorded: inhibited S phase entry, RB phosphorylation, and FOXM1 expression
- CDK6 expression after washing the PROTAC from the culture medium ([1]; BV173 cells treated 4 hours, then washed): very low for at least 6 hours, returning to the levels of untreated cells 12 hours after washing the PROTAC from the culture medium
- CDK6 expression on co-treatment with proteasome inhibitor MG132 ([1]; BV173 cells, 4 hours): restored CDK6 expression at the levels of untreated cells; also recorded: restored CDK6 expression to the levels of untreated cells
- CDK6 downregulation on co-treatment with Palbociclib or thalidomide ([1]; BV173 cells, YX-2-107 2 μM, 4 hours): prevented the downregulation of CDK6
- selectivity of degradation, CDK6 over CDK4 ([1]; Ph+ ALL cells): inhibits RB phosphorylation and reduces CDK6 protein levels selectively over CDK4
- time course of CDK6 downregulation ([1]; Ph+ BV173 cells): detected as early as one hour post-treatment with YX-2-107 and at 4 hours, levels of CDK6 were markedly suppressed; also recorded: detected as early as one hour post-treatment with YX-2-107, and at 4 hours CDK6 levels were markedly reduced
- proteins significantly downregulated (LFQ intensity vs DMSO) (BV173 cells): of 3,682 proteins examined only CDK6 was significantly downregulated
